Each structure is given as a SMILES string. pIC50: −log10 of the molar value.

This test has as its target T1, cyclic GMP specific phosphodiesterase (PDE 5) (Homo sapiens, UniProt O76074).
T1 construct: isolated from human platelet lysates by ion exchange chromatography using a Mono-Q column; from tissue; host or cells: human platelets (lysate, Mono-Q ion exchange fraction)
Kind of test: PDE 5 inhibitory activity, enzyme isolated from human platelet lysates. In kind it is biochemical. The following applies: PDE 5 from human platelet lysates; 0.25 mM [3H]-cyclic GMP as substrate; read-out: IC50 PDE5. As for the experimental part: The cyclic GMP specific phosphodiesterase (PDE 5) was isolated from human platelet lysates by ion exchange chromatography using a Mono-Q column. The enzyme activity was determined using 0.25 mM [3H]-cyclic GMP as substrate. The purification of the enzyme and the assessment of the PDE 5 inhibitory activity of our compounds were performed essentially as described by R. W. Gristwood et al., Br. J. Pharmacol. 1992, 105:985-991.

The pIC50 is the IC50 on a negative log10 scale, so that one unit is a factor of ten. As for `CCCOc1ccc(S(=O)(=O)N2CCN(C)CC2)cc1-c1cc2c([nH]1)c(=O)n(C)c(=O)n2CCC` [Example 12, 3-Methyl-6-[5-(4-methylpiperazine-1-sulphonyl)-2-propoxyphenyl]-1-propyl-1,5-dihydropyrrolo[3,2-d]pyrimidine-2,4-dione], the pIC50 is 7.85. `CCCOc1ccc(S(=O)(=O)N2CCN(CC)CC2)cc1-c1cc2c([nH]1)c(=O)n(C)c(=O)n2CCC` [Example 13, 6-[5-(4-Ethylpiperazine-1-sulphonyl)-2-propoxyphenyl]-3-methyl-1-propyl-1,5-dihydropyrrolo[3,2-d]pyrimidine-2,4-dione]: the pIC50 was 8.10. For `CCCn1c(=O)n(C)c(=O)c2[nH]c(-c3cc(S(=O)(=O)N4CCN(C)CC4)ccc3OCC)c(Cl)c21` [Example 27, 7-Chloro-6-[2-ethoxy-5-(4-methylpiperazine-1-sulfonyl)phenyl]-3-methyl-1-propyl-1,5-dihydropyrrolo[3,2-d]pyrimidine-2,4-dione] the value was 8.47. For the molecule `CCCOc1ccc(S(=O)(=O)N2CCN(C)CC2)cc1-c1[nH]c2c(=O)n(C)c(=O)n(CCC)c2c1Cl` [Example 33, 7-Chloro-3-methyl-6-[5-(4-methylpiperazine-1-sulfonyl)-2-propoxyphenyl]-1-propyl-1,5-dihydropyrrolo[3,2-d]pyrimidine-2,4-dione], the pIC50 was 8.38.

With `CCCOc1ccc(S(=O)(=O)N2CCN(CC)CC2)cc1-c1[nH]c2c(=O)n(C)c(=O)n(CCC)c2c1Cl` [Example 34, 7-Chloro-6-[5-(4-ethylpiperazine-1-sulfonyl)-2-propoxyphenyl]-3-methyl-1-propyl-1,5-dihydropyrrolo[3,2-d]pyrimidine-2,4-dione], the pIC50 is 8.44.

Turning to `CCCOc1ccc(S(=O)(=O)N2CCN(CCO)CC2)cc1-c1[nH]c2c(=O)n(C)c(=O)n(CCC)c2c1Cl` [Example 35, 7-Chloro-6-{5-[4-(2-hydroxyethyl)piperazine-1-sulfonyl]-2-propoxyphenyl}-3-methyl-1-propyl-1,5-dihydropyrrolo[3,2-d]pyrimidine-2,4-dione], the negative logarithm of the IC50 (pIC50) was 8.47. Turning to `CCCn1c(=O)n(C)c(=O)c2[nH]c(-c3cc(S(=O)(=O)N4CCN(CCCO)CC4)ccc3OCC)c(Br)c21` [Example 47, 7-Bromo-6-{2-ethoxy-5-[4-(3-hydroxypropyl)piperazine-1-sulfonyl]phenyl}-3-methyl-1-propyl-1,5-dihydropyrrolo[3,2-d]pyrimidine-2,4-dione], the pIC50 was 8.04.

For the molecule `CCCOc1ccc(S(=O)(=O)N2CCN(C)CC2)cc1-c1[nH]c2c(=O)n(C)c(=O)n(CCC)c2c1Br` [Example 50, 7-Bromo-3-methyl-6-[5-(4-methylpiperazine-1-sulfonyl)-2-propoxyphenyl]-1-propyl-1,5-dihydropyrrolo[3,2-d]pyrimidine-2,4-dione], the pIC50 is 8.35. For the molecule `CCCOc1ccc(S(=O)(=O)N2CCN(CCO)CC2)cc1-c1[nH]c2c(=O)n(C)c(=O)n(CCC)c2c1Br` [Example 55, 7-Bromo-6-{5-[4-(2-hydroxyethyl)piperazine-1-sulfonyl]-2-propoxyphenyl}-3-methyl-1-propyl-1,5-dihydropyrrolo[3,2-d]pyrimidine-2,4-dione], the negative logarithm of the IC50 (pIC50) is 8.18. Next, `CCCOc1ccc(S(=O)(=O)N2CCN(CCCO)CC2)cc1-c1[nH]c2c(=O)n(C)c(=O)n(CCC)c2c1Br` [Example 57, 7-Bromo-6-{5-[4-(3-hydroxypropyl)piperazine-1-sulfonyl]-2-propoxyphenyl}-3-methyl-1-propyl-1,5-dihydropyrrolo[3,2-d]pyrimidine-2,4-dione]: 8.40.

The record behind these values is patent US6943253B2, “6-phenylpyrrolopyrimidinedione derivatives” (Almirall Prodesfarma S.A., priority 2000, dated 2005).
